# Where two headings read alike, the source gives them in different places.
# Experiments:
# Staph. aureus Smith = assay: In vivo activity (oral, iv; ED50) against Staph. aureus Smith in mice
# Description: Representative examples of compounds of Formula I were tested for the oral efficacy using S. aureus Smith in mice.
# E. faecalis GC 2242 = assay: MIC, broth microdilution; settings: Enterococcus faecalis
# E. faecium GC 2243 = assay: MIC, broth microdilution; settings: Enterococcus faecium
# P. aeruginosa GC 2214 = assay: MIC, broth microdilution; settings: Pseudomonas aeruginosa
# S. pneumoniae+ GC 4465 = assay: MIC, broth microdilution; settings: Streptococcus pneumoniae
# E. coli GC 2236 = assay: MIC, broth microdilution; settings: Escherichia coli
# E. faecalis GC 4555 = assay: MIC, broth microdilution; settings: Enterococcus faecalis
# Staph. = assay: Range of MIC for Staph. strains, including MRSA; settings: Staphylococcus aureus, MRSA
# S. aureus GC 2216 = assay: MIC, broth microdilution; settings: Staphylococcus aureus
# S. epidermidis GC 4935 = assay: MIC, broth microdilution; settings: Staphylococcus epidermidis
# S. aureus GC 1131 = assay: MIC, broth microdilution; settings: Staphylococcus aureus
# E. coli GC 2231 = assay: MIC, broth microdilution; settings: Escherichia coli
# E. coli = assay: Range of MIC for E. coli strains; settings: Escherichia coli
# E. faecalis GC 2267 = assay: MIC, broth microdilution; settings: Enterococcus faecalis
# E. faecalis GC 2265 = assay: MIC, broth microdilution; settings: Enterococcus faecalis
# S. pneumoniae* GC 4465 = assay: MIC, broth microdilution; settings: Streptococcus pneumoniae
# E. coli GC 2272 = assay: MIC, broth microdilution; settings: Escherichia coli
# c. albicans GC 3066 = assay: MIC, broth microdilution; settings: for MIC: Candida albicans, GC3066, read-out: MINIMAL INHIBITORY CONCENTRATION MIC; for MINIMAL INHIBITORY CONCENTRATION MIC: pre-incubated in Water
# S. aureus GC 4536 = assay: MIC, broth microdilution; settings: Staphylococcus aureus
# E. coli GC 2232 = assay: MIC, broth microdilution; settings: Escherichia coli
# [1] = Staphylococcus aureus, in Mus musculus, po, read-out: ED50 Staph Smith SOD
# [2] = iv, read-out: ED50 Staph Smith SIV
# [3] = GC2242, read-out: MINIMAL INHIBITORY CONCENTRATION MIC, pre-incubated in Mouse Serum
# [4] = GC2242, read-out: MINIMAL INHIBITORY CONCENTRATION MIC, pre-incubated in Water
# [5] = GC2243, read-out: MINIMAL INHIBITORY CONCENTRATION MIC, pre-incubated in Mouse Serum
# [6] = GC2243, read-out: MINIMAL INHIBITORY CONCENTRATION MIC, pre-incubated in Water
# [7] = GC2214, read-out: MINIMAL INHIBITORY CONCENTRATION MIC, pre-incubated in Mouse Serum
# [8] = GC2214, read-out: MINIMAL INHIBITORY CONCENTRATION MIC, pre-incubated in Water
# [9] = read-out: MINIMAL INHIBITORY CONCENTRATION MIC, pre-incubated in Mouse Serum
# [10] = read-out: MINIMAL INHIBITORY CONCENTRATION MIC, pre-incubated in Water
# [11] = GC2236, read-out: MINIMAL INHIBITORY CONCENTRATION MIC, pre-incubated in Mouse Serum
# [12] = GC2236, read-out: MINIMAL INHIBITORY CONCENTRATION MIC, pre-incubated in Water
# [13] = GC4555, read-out: MINIMAL INHIBITORY CONCENTRATION MIC, pre-incubated in Mouse Serum
# [14] = GC4555, read-out: MINIMAL INHIBITORY CONCENTRATION MIC, pre-incubated in Water
# [15] = read-out: Range of MIC, Staph (Mouse Serum)
# [16] = GC2216, read-out: MINIMAL INHIBITORY CONCENTRATION MIC, pre-incubated in Mouse Serum
# [17] = GC2216, read-out: MINIMAL INHIBITORY CONCENTRATION MIC, pre-incubated in Water
# [18] = GC4935, read-out: MINIMAL INHIBITORY CONCENTRATION MIC, pre-incubated in Mouse Serum
# [19] = GC4935, read-out: MINIMAL INHIBITORY CONCENTRATION MIC, pre-incubated in Water
# [20] = GC1131, read-out: MINIMAL INHIBITORY CONCENTRATION MIC, pre-incubated in Mouse Serum
# [21] = GC1131, read-out: MINIMAL INHIBITORY CONCENTRATION MIC, pre-incubated in Water
# [22] = GC2231, read-out: MINIMAL INHIBITORY CONCENTRATION MIC, pre-incubated in Mouse Serum
# [23] = GC2231, read-out: MINIMAL INHIBITORY CONCENTRATION MIC, pre-incubated in Water
# [24] = 20 h, read-out: Range of MIC, E. coli (Mouse Serum)
# [25] = read-out: Range of MIC, E. coli (Water)
# [26] = GC2267, read-out: MINIMAL INHIBITORY CONCENTRATION MIC, pre-incubated in Mouse Serum
# [27] = GC2267, read-out: MINIMAL INHIBITORY CONCENTRATION MIC, pre-incubated in Water
# [28] = GC2265, read-out: MINIMAL INHIBITORY CONCENTRATION MIC, pre-incubated in Mouse Serum
# [29] = GC2265, read-out: MINIMAL INHIBITORY CONCENTRATION MIC, pre-incubated in Water
# [30] = GC2272, read-out: MINIMAL INHIBITORY CONCENTRATION MIC, pre-incubated in Mouse Serum
# [31] = GC2272, read-out: MINIMAL INHIBITORY CONCENTRATION MIC, pre-incubated in Water
# [32] = GC4536, read-out: MINIMAL INHIBITORY CONCENTRATION MIC, pre-incubated in Mouse Serum
# [33] = GC4536, read-out: MINIMAL INHIBITORY CONCENTRATION MIC, pre-incubated in Water
# [34] = GC2232, read-out: MINIMAL INHIBITORY CONCENTRATION MIC, pre-incubated in Mouse Serum
# [35] = GC2232, read-out: MINIMAL INHIBITORY CONCENTRATION MIC, pre-incubated in Water
smiles,measurement,setting,value
"CCCCN(CC(=O)Nc1cc(N(C)C)c2c(c1O)C(=O)C1=C(O)[C@]3(O)C(=O)C(C(N)=O)=C(O)[C@@H](N(C)C)[C@@H]3C[C@@H]1C2)C(=O)OCOC(=O)c1cccs1 [Example 23, ({[(2-{[(5aR,6aS,7S,10aS)-9-(aminocarbonyl)-4,7-bis(dimethylamino)-1,8,10a,11-tetrahydroxy-10,12-dioxo-5,5a,6,6a,7,10,10a,12-octahydrotetracen-2-yl]amino}-2-oxoethyl)(butyl)amino]carbonyl}oxy)methyl thiophene-2-carboxylate]",ED50,Staph. aureus Smith; [1],19 mg/kg
same,ED50,Staph. aureus Smith; [2],0.47 mg/kg
same,MIC,E. faecalis GC 2242; [3],2 µg/mL
same,MIC,E. faecalis GC 2242; [4],4 µg/mL
same,MIC,E. faecium GC 2243; [5],0.5 µg/mL
same,MIC,E. faecium GC 2243; [6],4 µg/mL
same,MIC,P. aeruginosa GC 2214; [7],> 64 µg/mL
same,MIC,P. aeruginosa GC 2214; [8],> 64 µg/mL
same,MIC,S. pneumoniae+ GC 4465; [9],4 µg/mL
same,MIC,S. pneumoniae+ GC 4465; [10],8 µg/mL
same,MIC,E. coli GC 2236; [11],2 µg/mL
same,MIC,E. coli GC 2236; [12],> 64 µg/mL
same,MIC,E. faecalis GC 4555; [13],1 µg/mL
same,MIC,E. faecalis GC 4555; [14],4 µg/mL
same,MIC,"Staph.; read-out: Minimum inhibitory concentration (MIC), Staph. (mouse serum)",0.25 to 4 µg/mL
same,MIC,"Staph.; read-out: Minimum inhibitory concentration (MIC), Staph. (water)",0.5 to 8 µg/mL
same,MIC,Staph.; [15],0.25 to 4 µg/mL
same,MIC,"Staph.; read-out: Range of MIC, Staph (Water)",0.5 to 8 µg/mL
same,MIC,S. aureus GC 2216; [16],1 µg/mL
same,MIC,S. aureus GC 2216; [17],4 µg/mL
same,MIC,S. epidermidis GC 4935; [18],2 µg/mL
same,MIC,S. epidermidis GC 4935; [19],4 µg/mL
same,MIC,S. aureus GC 1131; [20],1 µg/mL
same,MIC,S. aureus GC 1131; [21],2 µg/mL
same,MIC,E. coli GC 2231; [22],2 µg/mL
same,MIC,E. coli GC 2231; [23],> 64 µg/mL
same,MIC,E. coli; [24],1 to 8 µg/mL
same,MIC,"E. coli; read-out: Minimum inhibitory concentration (MIC), E. coli (mouse serum)",1 to 8 µg/mL
same,MIC,"E. coli; read-out: Minimum inhibitory concentration (MIC), E. coli (water)",> 64 µg/mL
same,MIC,E. coli; [25],> 64 µg/mL
same,MIC,E. faecalis GC 2267; [26],2 µg/mL
same,MIC,E. faecalis GC 2267; [27],8 µg/mL
same,MIC,E. faecalis GC 2265; [28],1 µg/mL
same,MIC,E. faecalis GC 2265; [29],4 µg/mL
same,MIC,S. pneumoniae* GC 4465; [9],0.12 µg/mL
same,MIC,S. pneumoniae* GC 4465; [10],0.12 µg/mL
same,MIC,E. coli GC 2272; [30],1 µg/mL
same,MIC,E. coli GC 2272; [31],> 64 µg/mL
same,MIC,c. albicans GC 3066,> 64 µg/mL
same,MINIMAL INHIBITORY CONCENTRATION MIC,c. albicans GC 3066,>64 UG/ML
same,MIC,S. aureus GC 4536; [32],1 µg/mL
same,MIC,S. aureus GC 4536; [33],2 µg/mL
same,MIC,E. coli GC 2232; [34],1 µg/mL
same,MIC,E. coli GC 2232; [35],> 64 µg/mL
"CCCN(CC(=O)Nc1cc(N(C)C)c2c(c1O)C(=O)C1=C(O)[C@]3(O)C(=O)C(C(N)=O)=C(O)[C@@H](N(C)C)[C@@H]3C[C@@H]1C2)C(=O)OCOC(=O)c1ccc(-c2ccccc2)cc1 [Example 24, ({[(2-{[(5aR,6aS,7S,10aS)-9-(aminocarbonyl)-4,7-bis(dimethylamino)-1,8,10a,11-tetrahydroxy-10,12-dioxo-5,5a,6,6a,7,10,10a,12-octahydrotetracen-2-yl]amino}-2-oxoethyl)(propyl)amino]carbonyl}oxy)methyl 1,1′-biphenyl-4-carboxylate]",ED50,Staph. aureus Smith; [1],27 mg/kg
same,ED50,Staph. aureus Smith; [2],0.59 mg/kg
same,MIC,E. faecalis GC 2242; [3],2 µg/mL
same,MIC,E. faecalis GC 2242; [4],4 µg/mL
same,MIC,E. faecium GC 2243; [5],0.5 µg/mL
same,MIC,E. faecium GC 2243; [6],2 µg/mL
same,MIC,P. aeruginosa GC 2214; [7],16 µg/mL
same,MIC,P. aeruginosa GC 2214; [8],> 64 µg/mL
same,MIC,S. pneumoniae+ GC 4465; [9],2 µg/mL
same,MIC,S. pneumoniae+ GC 4465; [10],1 µg/mL
same,MIC,E. coli GC 2236; [11],1 µg/mL
same,MIC,E. coli GC 2236; [12],> 64 µg/mL
same,MIC,E. faecalis GC 4555; [13],1 µg/mL
same,MIC,E. faecalis GC 4555; [14],64 µg/mL
same,MIC,Staph.; [15],0.25 to 4 µg/mL
same,MIC,"Staph.; read-out: Range of MIC, Staph. (mouse serum)",0.25 to 4 µg/mL
same,MIC,S. aureus GC 2216; [16],0.5 µg/mL
same,MIC,S. aureus GC 2216; [17],4 µg/mL
same,MIC,S. epidermidis GC 4935; [18],2 µg/mL
same,MIC,S. epidermidis GC 4935; [19],16 µg/mL
same,MIC,S. aureus GC 1131; [20],1 µg/mL
same,MIC,S. aureus GC 1131; [21],2 µg/mL
same,MIC,E. coli GC 2231; [22],2 µg/mL
same,MIC,E. coli GC 2231; [23],> 64 µg/mL
same,MIC,E. coli; [24],0.5 to 2 µg/mL
same,MIC,E. coli; [25],> 64 µg/mL
same,MIC,"E. coli; read-out: Range of MIC, E. coli (mouse serum)",0.5 to 2 µg/mL
same,MIC,"E. coli; read-out: Range of MIC, E. coli (water)",> 64 µg/mL
same,MIC,E. faecalis GC 2267; [26],4 µg/mL
same,MIC,E. faecalis GC 2267; [27],64 µg/mL
same,MIC,E. faecalis GC 2265; [28],2 µg/mL
same,MIC,E. faecalis GC 2265; [29],32 µg/mL
same,MIC,S. pneumoniae* GC 4465; [9],< 0.06 µg/mL
same,MIC,S. pneumoniae* GC 4465; [10],< 0.06 µg/mL
same,MIC,E. coli GC 2272; [30],1 µg/mL
same,MIC,E. coli GC 2272; [31],> 64 µg/mL
same,MIC,c. albicans GC 3066,> 64 µg/mL
same,MINIMAL INHIBITORY CONCENTRATION MIC,c. albicans GC 3066,>64 UG/ML
same,MIC,S. aureus GC 4536; [32],1 µg/mL
same,MIC,S. aureus GC 4536; [33],4 µg/mL
same,MIC,E. coli GC 2232; [34],0.5 µg/mL
same,MIC,E. coli GC 2232; [35],> 64 µg/mL
